Each block holds one compound with its values, some of them ahead of it.
Columns and labels:
Experiment in all cases: radiometric filter-binding kinase assay, Kinaseprofiler
[1] = test system: SGK1 (human), O00141 [S422D]; conditions: ATP 90 µM
[2] = test system: AXL (human), P30530 [Q764R]; conditions: ATP 90 µM
[3] = test system: RPS6KB1 (human), P23443 [T412E]; conditions: ATP 15 µM
[4] = test system: IRAK4 (human), Q9NWZ3 [A81V]; conditions: ATP 200 µM
[5] = test system: BRSK2 (human), Q8IWQ3 [S251I]; conditions: ATP 70 µM
CDC42BPA (human) = CDC42BPA (human) (UniProt Q5VT25); conditions: compound 10.0 µM; ATP 45 µM
KDR (human) = KDR (human) (UniProt P35968); conditions: compound 10.0 µM; ATP 90 µM
RPS6KA3 KD1 KD2 (human) = RPS6KA3 KD1 KD2 (human) (UniProt P51812); conditions: compound 1.0 µM; ATP 10 µM
PIM1 (human) = PIM1 (human) (UniProt P11309); conditions: compound 10.0 µM; ATP 90 µM
PAK4 (human) = PAK4 (human) (UniProt O96013); conditions: compound 10.0 µM; ATP 10 µM
RPS6KA5 KD1 KD2 (human) = RPS6KA5 KD1 KD2 (human) (UniProt O75582); conditions: compound 1.0 µM; ATP 90 µM
MARK2 (human) = MARK2 (human) (UniProt Q7KZI7); conditions: compound 1.0 µM; ATP 15 µM
TAOK1 (human) = TAOK1 (human) (UniProt Q7L7X3); conditions: compound 1.0 µM; ATP 10 µM
NTRK1 (human) = NTRK1 (human) (UniProt P04629); conditions: compound 1.0 µM; ATP 120 µM
AURKB (human) = AURKB (human) (UniProt Q96GD4); conditions: compound 10.0 µM; ATP 10 µM
CAMK2G (human) = CAMK2G (human) (UniProt Q13555); conditions: compound 10.0 µM; ATP 10 µM
EPHA3 (human) = EPHA3 (human) (UniProt P29320); conditions: compound 1.0 µM; ATP 120 µM
TNK2 (human) = TNK2 (human) (UniProt Q07912); conditions: compound 1.0 µM; ATP 70 µM
[6] = molecular target: JAK2 JH1 catalytic (human) (UniProt O60674); conditions: compound 1.0 µM; ATP 45 µM
EPHA1 (human) = EPHA1 (human) (UniProt P21709); conditions: compound 1.0 µM; ATP 45 µM
MELK (human) = MELK (human) (UniProt Q14680); conditions: compound 1.0 µM; ATP 45 µM
INSR (human) = INSR (human) (UniProt P06213); conditions: compound 1.0 µM; ATP 200 µM
STK4 (human) = STK4 (human) (UniProt Q13043); conditions: compound 1.0 µM; ATP 90 µM
FYN (human) = FYN (human) (UniProt P06241); conditions: compound 1.0 µM; ATP 70 µM
TXK (human) = TXK (human) (UniProt P42681); conditions: compound 1.0 µM; ATP 200 µM
TLK2 (human) = TLK2 (human) (UniProt Q86UE8); conditions: ATP 10 µM
RPS6KA4 KD1 KD2 (human) = RPS6KA4 KD1 KD2 (human) (UniProt O75676); conditions: ATP 45 µM
PTK2B (human) = PTK2B (human) (UniProt Q14289); conditions: compound 10.0 µM; ATP 90 µM
SRC (human) = SRC (human) (UniProt P12931); conditions: compound 10.0 µM; ATP 200 µM
EPHA8 (human) = EPHA8 (human) (UniProt P29322); conditions: compound 1.0 µM; ATP 200 µM
CSNK1G1 (human) = CSNK1G1 (human) (UniProt Q9HCP0); conditions: compound 10.0 µM; ATP 15 µM
SRPK3 (human) = SRPK3 (human) (UniProt Q9UPE1); conditions: compound 10.0 µM; ATP 15 µM
NLK (human) = NLK (human) (UniProt Q9UBE8); conditions: compound 1.0 µM; ATP 200 µM
NTRK2 (human) = NTRK2 (human) (UniProt Q16620); conditions: ATP 90 µM
FLT3 (human) = FLT3 (human) (UniProt P36888); conditions: ATP 200 µM
STK24 (human) = STK24 (human) (UniProt Q9Y6E0); conditions: compound 1.0 µM; ATP 15 µM
PLK3 (human) = PLK3 (human) (UniProt Q9H4B4); conditions: compound 10.0 µM; ATP 70 µM
PAK7 (human) = PAK7 (human) (UniProt Q9P286); conditions: compound 10.0 µM; ATP 15 µM
[7] = molecular target: CSNK2A1 CSNK2B CSNK2A2 (human) (UniProt P19784+P68400+P67870); conditions: compound 10.0 µM; ATP 15 µM
FER (human) = FER (human) (UniProt P16591); conditions: compound 10.0 µM; ATP 70 µM
NUAK1 (human) = NUAK1 (human) (UniProt O60285); conditions: ATP 45 µM
STK17A (human) = STK17A (human) (UniProt Q9UEE5); conditions: compound 10.0 µM; ATP 10 µM
ULK3 (human) = ULK3 (human) (UniProt Q6PHR2); conditions: compound 10.0 µM; ATP 10 µM
PRKG1 (human) = PRKG1 (human) (UniProt Q13976); conditions: compound 1.0 µM; ATP 90 µM
IRAK1 (human) = IRAK1 (human) (UniProt P51617); conditions: compound 10.0 µM; ATP 45 µM
PASK (human) = PASK (human) (UniProt Q96RG2); conditions: compound 10.0 µM; ATP 15 µM
EPHB1 (human) = EPHB1 (human) (UniProt P54762); conditions: compound 10.0 µM; ATP 200 µM
PRKACA (human) = PRKACA (human) (UniProt P17612); conditions: compound 1.0 µM; ATP 10 µM
CSNK1D (rat) = conditions: compound 10.0 µM; accession and sequence are those of the human protein
CHEK1 (human) = CHEK1 (human) (UniProt O14757); conditions: compound 10.0 µM; ATP 90 µM
SRPK1 (human) = SRPK1 (human) (UniProt Q96SB4); conditions: compound 10.0 µM; ATP 10 µM
MAP2K1 (human) = MAP2K1 (human) (UniProt Q02750); conditions: compound 1.0 µM; ATP 10 µM
MTOR FKBP1A (human) = MTOR FKBP1A (human) (UniProt P42345+P62942); conditions: compound 10.0 µM; ATP 45 µM
FGR (human) = FGR (human) (UniProt P09769); conditions: compound 1.0 µM; ATP 45 µM
MAPKAPK3 (human) = MAPKAPK3 (human) (UniProt Q16644); conditions: compound 10.0 µM; ATP 90 µM
MAPK3 (human) = MAPK3 (human) (UniProt P27361); conditions: compound 1.0 µM; ATP 70 µM
HIPK3 (human) = HIPK3 (human) (UniProt Q9H422); conditions: ATP 15 µM
WNK2 (human) = WNK2 (human) (UniProt Q9Y3S1); conditions: compound 10.0 µM; ATP 200 µM

IRAK4 (human), Q9NWZ3 [A81V], sequence (Q9NWZ3 whole entry, looked up, stated change not applied): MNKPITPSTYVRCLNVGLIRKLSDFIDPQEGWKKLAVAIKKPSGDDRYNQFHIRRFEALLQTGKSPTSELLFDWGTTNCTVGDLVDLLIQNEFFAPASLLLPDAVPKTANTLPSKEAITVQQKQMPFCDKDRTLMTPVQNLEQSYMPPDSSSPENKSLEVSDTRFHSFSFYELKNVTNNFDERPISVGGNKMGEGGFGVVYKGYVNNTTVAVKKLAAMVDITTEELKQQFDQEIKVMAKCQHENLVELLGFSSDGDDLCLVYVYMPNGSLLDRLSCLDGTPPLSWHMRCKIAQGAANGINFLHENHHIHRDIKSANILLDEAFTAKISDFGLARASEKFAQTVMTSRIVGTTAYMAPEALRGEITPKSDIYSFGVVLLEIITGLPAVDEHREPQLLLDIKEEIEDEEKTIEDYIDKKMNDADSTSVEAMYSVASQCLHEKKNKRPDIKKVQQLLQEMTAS
AXL (human), P30530 [Q764R], sequence (P30530 whole entry Q764R, looked up): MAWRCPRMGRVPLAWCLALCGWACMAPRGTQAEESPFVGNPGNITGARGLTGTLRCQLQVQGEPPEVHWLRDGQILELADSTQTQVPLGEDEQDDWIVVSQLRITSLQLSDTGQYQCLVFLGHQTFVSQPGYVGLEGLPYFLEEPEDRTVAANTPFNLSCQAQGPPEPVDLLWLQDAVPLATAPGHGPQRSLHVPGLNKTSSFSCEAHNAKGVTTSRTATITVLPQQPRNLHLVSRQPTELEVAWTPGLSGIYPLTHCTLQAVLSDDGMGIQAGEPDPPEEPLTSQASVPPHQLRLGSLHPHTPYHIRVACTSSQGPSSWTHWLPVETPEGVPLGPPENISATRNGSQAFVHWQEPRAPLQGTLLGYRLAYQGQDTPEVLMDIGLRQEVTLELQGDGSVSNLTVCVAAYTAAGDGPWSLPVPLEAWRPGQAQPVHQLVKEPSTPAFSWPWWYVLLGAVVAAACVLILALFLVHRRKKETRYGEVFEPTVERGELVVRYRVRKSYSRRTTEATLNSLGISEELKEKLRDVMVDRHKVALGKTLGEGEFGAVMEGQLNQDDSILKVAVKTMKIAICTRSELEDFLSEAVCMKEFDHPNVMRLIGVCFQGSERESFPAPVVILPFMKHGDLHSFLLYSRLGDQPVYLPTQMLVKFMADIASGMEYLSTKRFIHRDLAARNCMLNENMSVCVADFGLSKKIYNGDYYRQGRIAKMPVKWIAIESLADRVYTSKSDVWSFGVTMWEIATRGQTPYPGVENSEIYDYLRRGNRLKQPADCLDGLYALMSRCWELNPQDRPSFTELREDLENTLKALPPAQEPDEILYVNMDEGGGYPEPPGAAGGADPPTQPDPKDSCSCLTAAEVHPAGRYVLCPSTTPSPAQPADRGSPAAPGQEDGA
BRSK2 (human), Q8IWQ3 [S251I], sequence (Q8IWQ3 whole entry, looked up, stated change not applied): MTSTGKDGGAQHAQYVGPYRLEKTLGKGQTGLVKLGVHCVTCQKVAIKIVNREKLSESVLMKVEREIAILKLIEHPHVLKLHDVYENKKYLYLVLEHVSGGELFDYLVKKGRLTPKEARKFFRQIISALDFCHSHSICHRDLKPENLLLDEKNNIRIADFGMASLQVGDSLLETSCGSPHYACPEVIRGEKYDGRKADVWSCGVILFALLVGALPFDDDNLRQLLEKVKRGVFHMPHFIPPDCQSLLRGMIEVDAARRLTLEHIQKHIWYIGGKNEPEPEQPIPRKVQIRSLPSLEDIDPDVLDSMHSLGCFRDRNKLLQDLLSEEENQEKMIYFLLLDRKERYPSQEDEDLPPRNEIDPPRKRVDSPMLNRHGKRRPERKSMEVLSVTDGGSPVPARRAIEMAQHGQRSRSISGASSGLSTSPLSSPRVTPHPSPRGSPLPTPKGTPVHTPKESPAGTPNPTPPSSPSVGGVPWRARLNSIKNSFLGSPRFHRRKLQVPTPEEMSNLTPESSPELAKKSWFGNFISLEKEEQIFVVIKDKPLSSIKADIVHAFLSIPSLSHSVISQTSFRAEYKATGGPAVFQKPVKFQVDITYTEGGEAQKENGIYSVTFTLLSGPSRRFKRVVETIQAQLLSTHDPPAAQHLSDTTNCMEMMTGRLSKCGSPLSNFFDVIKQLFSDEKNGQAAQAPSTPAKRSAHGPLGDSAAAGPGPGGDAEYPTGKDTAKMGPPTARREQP
NTRK2 (human), sequence (Q16620 whole entry, looked up): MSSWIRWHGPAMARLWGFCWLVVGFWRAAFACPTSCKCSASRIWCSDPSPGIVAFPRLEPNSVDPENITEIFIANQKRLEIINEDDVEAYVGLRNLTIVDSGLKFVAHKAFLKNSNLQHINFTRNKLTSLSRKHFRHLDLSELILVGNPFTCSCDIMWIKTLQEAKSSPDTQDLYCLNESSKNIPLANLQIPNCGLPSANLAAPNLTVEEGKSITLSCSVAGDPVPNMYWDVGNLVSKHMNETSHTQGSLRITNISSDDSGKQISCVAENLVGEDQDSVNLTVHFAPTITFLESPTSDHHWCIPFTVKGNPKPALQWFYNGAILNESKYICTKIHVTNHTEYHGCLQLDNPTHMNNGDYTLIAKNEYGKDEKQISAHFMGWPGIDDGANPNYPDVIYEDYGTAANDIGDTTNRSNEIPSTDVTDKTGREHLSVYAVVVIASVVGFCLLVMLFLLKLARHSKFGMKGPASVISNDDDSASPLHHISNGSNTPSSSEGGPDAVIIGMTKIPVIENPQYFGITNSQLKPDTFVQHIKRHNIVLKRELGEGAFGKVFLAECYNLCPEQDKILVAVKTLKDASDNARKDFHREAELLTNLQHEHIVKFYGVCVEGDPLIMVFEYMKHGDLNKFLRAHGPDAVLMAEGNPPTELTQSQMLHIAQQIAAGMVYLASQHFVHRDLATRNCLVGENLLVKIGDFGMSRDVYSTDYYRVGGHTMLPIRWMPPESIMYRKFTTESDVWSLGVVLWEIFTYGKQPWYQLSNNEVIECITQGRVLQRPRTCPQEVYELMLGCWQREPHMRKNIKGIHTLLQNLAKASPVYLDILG
RPS6KA4 KD1 KD2 (human), sequence (O75676 whole entry, looked up): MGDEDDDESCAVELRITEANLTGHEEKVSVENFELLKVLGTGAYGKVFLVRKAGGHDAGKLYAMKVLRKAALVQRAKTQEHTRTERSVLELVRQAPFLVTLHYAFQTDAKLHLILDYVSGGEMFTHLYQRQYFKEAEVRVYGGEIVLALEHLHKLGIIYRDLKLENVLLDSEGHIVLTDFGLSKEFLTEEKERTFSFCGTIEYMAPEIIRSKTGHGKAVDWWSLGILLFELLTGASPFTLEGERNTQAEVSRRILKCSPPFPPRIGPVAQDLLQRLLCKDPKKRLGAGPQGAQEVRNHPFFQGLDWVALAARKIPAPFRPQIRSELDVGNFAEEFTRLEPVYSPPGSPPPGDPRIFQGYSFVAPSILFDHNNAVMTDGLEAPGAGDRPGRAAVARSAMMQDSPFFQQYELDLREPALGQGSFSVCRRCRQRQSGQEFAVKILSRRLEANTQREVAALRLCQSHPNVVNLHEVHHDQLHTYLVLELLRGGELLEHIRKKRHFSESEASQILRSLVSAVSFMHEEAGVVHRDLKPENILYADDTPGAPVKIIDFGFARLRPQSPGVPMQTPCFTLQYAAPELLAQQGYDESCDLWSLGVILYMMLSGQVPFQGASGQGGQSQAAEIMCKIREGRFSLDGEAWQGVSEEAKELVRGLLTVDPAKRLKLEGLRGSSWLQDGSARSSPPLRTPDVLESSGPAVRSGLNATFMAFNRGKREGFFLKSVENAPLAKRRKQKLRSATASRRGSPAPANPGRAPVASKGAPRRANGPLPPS
HIPK3 (human), sequence (Q9H422 whole entry, looked up): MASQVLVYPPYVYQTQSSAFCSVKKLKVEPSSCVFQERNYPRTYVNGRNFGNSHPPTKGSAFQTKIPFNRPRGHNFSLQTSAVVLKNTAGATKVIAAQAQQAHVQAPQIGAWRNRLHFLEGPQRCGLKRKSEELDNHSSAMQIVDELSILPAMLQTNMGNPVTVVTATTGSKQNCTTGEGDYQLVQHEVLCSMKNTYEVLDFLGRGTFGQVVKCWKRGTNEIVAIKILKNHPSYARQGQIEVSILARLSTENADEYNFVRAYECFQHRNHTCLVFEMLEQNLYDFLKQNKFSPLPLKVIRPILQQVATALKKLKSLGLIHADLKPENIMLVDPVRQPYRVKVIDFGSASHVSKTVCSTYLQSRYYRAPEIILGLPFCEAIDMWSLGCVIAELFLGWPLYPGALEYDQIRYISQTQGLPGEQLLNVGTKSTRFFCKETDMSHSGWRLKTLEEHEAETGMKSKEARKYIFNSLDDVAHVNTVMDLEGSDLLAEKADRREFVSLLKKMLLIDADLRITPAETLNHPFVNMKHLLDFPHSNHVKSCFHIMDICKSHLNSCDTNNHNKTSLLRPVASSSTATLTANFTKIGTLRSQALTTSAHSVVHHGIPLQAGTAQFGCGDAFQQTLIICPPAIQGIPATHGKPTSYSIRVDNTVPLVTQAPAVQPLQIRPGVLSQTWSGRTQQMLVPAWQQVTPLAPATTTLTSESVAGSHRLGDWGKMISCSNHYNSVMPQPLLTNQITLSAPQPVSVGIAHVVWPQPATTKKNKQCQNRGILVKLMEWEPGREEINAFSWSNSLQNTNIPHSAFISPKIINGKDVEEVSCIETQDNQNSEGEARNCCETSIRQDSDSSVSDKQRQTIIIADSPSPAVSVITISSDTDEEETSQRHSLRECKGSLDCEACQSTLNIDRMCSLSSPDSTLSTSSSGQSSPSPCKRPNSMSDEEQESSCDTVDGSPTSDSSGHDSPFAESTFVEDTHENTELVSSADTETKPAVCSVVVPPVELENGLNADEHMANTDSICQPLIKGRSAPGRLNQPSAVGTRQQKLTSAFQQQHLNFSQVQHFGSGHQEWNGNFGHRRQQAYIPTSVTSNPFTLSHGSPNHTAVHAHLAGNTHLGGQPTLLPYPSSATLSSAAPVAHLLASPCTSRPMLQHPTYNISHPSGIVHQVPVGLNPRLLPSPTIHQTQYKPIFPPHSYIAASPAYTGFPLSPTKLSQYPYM
MTOR FKBP1A (human), sequence (P62942 whole entry, looked up, other chains not shown): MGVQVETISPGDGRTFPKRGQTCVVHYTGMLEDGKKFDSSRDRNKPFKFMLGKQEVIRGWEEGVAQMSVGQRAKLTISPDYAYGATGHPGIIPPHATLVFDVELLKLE

residual activity ([1]; compound 1.0 µM): 60% | residual activity ([1]; compound 10.0 µM): 24% | residual activity ([2]; compound 1.0 µM): 50% | residual activity ([2]; compound 10.0 µM): 17% | residual activity ([3]; compound 1.0 µM): 55% | residual activity ([3]; compound 10.0 µM): 14% | residual activity ([4]; compound 1.0 µM): 36% | residual activity ([4]; compound 10.0 µM): 11% | residual activity ([5]; compound 1.0 µM): 64% | residual activity ([5]; compound 10.0 µM): 9%
SMILES: O=C1c2ccccc2-c2n[nH]c3cccc1c23

residual activity (CDC42BPA (human)): 147% | residual activity (KDR (human)): 24% | residual activity (RPS6KA3 KD1 KD2 (human)): 17% | residual activity (PIM1 (human)): 28% | residual activity (PAK4 (human)): 28% | residual activity (RPS6KA5 KD1 KD2 (human)): 100% | residual activity (MARK2 (human)): 100% | residual activity (TAOK1 (human)): 100% | residual activity (NTRK1 (human)): 21% | residual activity (AURKB (human)): -1% | residual activity (CAMK2G (human)): 21% | residual activity (EPHA3 (human)): 100% | residual activity (TNK2 (human)): 24% | residual activity [6]: 17% | residual activity (EPHA1 (human)): 24%
SMILES: O=C(Nc1cccc(Nc2nccc(Nc3cccc(C(F)(F)F)c3)n2)c1)C1CC1

SMILES: COC(=O)[C@]1(O)C[C@@H]2O[C@@]1(C)n1c3ccccc3c3c4c(c5c6ccccc6n2c5c31)C(=O)NC4
residual activity ([2]; compound 10.0 µM): -3% | residual activity ([4]; compound 1.0 µM): -2% | residual activity ([4]; compound 10.0 µM): 0% | residual activity ([5]; compound 10.0 µM): 0%

SMILES: CN[C@@H]1C[C@H]2O[C@@](C)([C@@H]1OC)n1c3ccccc3c3c4c(c5c6ccccc6n2c5c31)C(=O)NC4
residual activity (MELK (human)): 0% | residual activity (INSR (human)): 26% | residual activity (STK4 (human)): 0% | residual activity (FYN (human)): 0% | residual activity (TXK (human)): 24% | residual activity (TLK2 (human); compound 1.0 µM): 0% | residual activity (TLK2 (human); compound 10.0 µM): 0% | residual activity (RPS6KA4 KD1 KD2 (human); compound 1.0 µM): 0% | residual activity (RPS6KA4 KD1 KD2 (human); compound 10.0 µM): 0% | residual activity (PTK2B (human)): 0% | residual activity (SRC (human)): 0% | residual activity (EPHA8 (human)): 26% | residual activity (CSNK1G1 (human)): 54% | residual activity (SRPK3 (human)): 51% | residual activity (NLK (human)): 26% | residual activity (NTRK2 (human); compound 1.0 µM): 0% | residual activity (NTRK2 (human); compound 10.0 µM): 0% | residual activity (FLT3 (human); compound 1.0 µM): 0% | residual activity (FLT3 (human); compound 10.0 µM): 0% | residual activity (STK24 (human)): 0% | residual activity (PLK3 (human)): 43% | residual activity (PAK7 (human)): 0% | residual activity [7]: 95% | residual activity (FER (human)): 0% | residual activity (NUAK1 (human); compound 1.0 µM): 0% | residual activity (NUAK1 (human); compound 10.0 µM): 0% | residual activity (STK17A (human)): 0% | residual activity (ULK3 (human)): 0% | residual activity (PRKG1 (human)): 0% | residual activity (IRAK1 (human)): 0% | residual activity (PASK (human)): 0% | residual activity ([4]; compound 10.0 µM): 0% | residual activity (EPHB1 (human)): 0% | residual activity ([5]; compound 10.0 µM): 0% | residual activity (PRKACA (human)): 0% | residual activity (CSNK1D (rat)): 52% | residual activity (CHEK1 (human)): 0% | residual activity (SRPK1 (human)): -4% | residual activity (MAP2K1 (human)): 0% | residual activity (MTOR FKBP1A (human)): 78% | residual activity (FGR (human)): 0% | residual activity (MAPKAPK3 (human)): 43% | residual activity (MAPK3 (human)): 62% | residual activity (HIPK3 (human); compound 1.0 µM): 82% | residual activity (HIPK3 (human); compound 10.0 µM): 34% | residual activity (WNK2 (human)): 37%

Source: the kinase profiling compilation of Christmann-Franck et al. (2016)
